Assay results as given in paper PMC6100082, “Pyridine-Ureas as Potential Anticancer Agents: Synthesis and In Vitro Biological Evaluation” (Molecules : A Journal of Synthetic Chemistry and Natural …, 2018).
Where two headings read alike, the source gives them in different places.

Experiments:
KM12 = assay: NCI one-dose SRB assay (Colon Cancer); format: cell-based, human; details: for inhibition at 10 µM: Homo sapiens, KM12, 10 μM, read-out: Percentage growth inhibition (GI%); for Growth Percent: KM12, 1.00E-5 Molar
Protocol: (§1) The structures of all the newly prepared pyridine-ureas 8a–n were submitted to the National Cancer Institute (NCI) Developmental Therapeutic Program. Eight compounds 8b, 8d, 8e, 8i, 8j and 8l–n were selected to be examined for their in vitro growth inhibitory activity. The anticancer assays were carried out according to the protocol of the Drug Evaluation Branch, NCI, Bethesda. The selected pyridine-ureas were tested at one dose primary anticancer assay against a panel of approximately 58 cancer lines (concentration 10^−5 M). The tested human cancer cell lines emerged from nine different cancer subtypes: leukemia, colon, melanoma, ovarian, lung, CNS, renal, breast and prostate cancers. The sulforhodamine B (SRB) protein assay was adopted to estimate the cell viability and growth. The results were reported as mean-graph of the percentage growth of the treated cells, and presented as percentage growth inhibition (GI%) caused by the test compounds (Table 2).
(§2) The anticancer assays were performed in accordance with the protocol of the Drug Evaluation Branch, NCI, Bethesda. A 48 h drug exposure protocol was used and sulforhodamine B (SRB) protein assay was applied to estimate the cell viability and growth, as reported earlier.

SW-620 = assay: NCI one-dose SRB assay (Colon Cancer); format: cell-based, human; details: for inhibition at 10 µM: Homo sapiens, SW-620, 10 μM, read-out: Percentage growth inhibition (GI%); for Growth Percent: SW-620, 1.00E-5 Molar
Protocol: as §1, §2

HT29 = assay: NCI one-dose SRB assay (Colon Cancer); format: cell-based, human; details: for Growth Percent: HT29, 1.00E-5 Molar; for inhibition at 10 µM: Homo sapiens, HT-29, HT29, 10 μM, read-out: Percentage growth inhibition (GI%)
Protocol: as §1, §2

HCT-15 = assay: NCI one-dose SRB assay (Colon Cancer); format: cell-based, human; details: for Growth Percent: HCT-15, 1.00E-5 Molar; for inhibition at 10 µM: Homo sapiens, HCT-15, 10 μM, read-out: Percentage growth inhibition (GI%)
Protocol: as §1, §2

COLO 205 = assay: NCI one-dose SRB assay (Colon Cancer); format: cell-based, human; details: for Growth Percent: COLO 205, 1.00E-5 Molar; for inhibition at 10 µM: Homo sapiens, COLO 205, 10 μM, read-out: Percentage growth inhibition (GI%)
Protocol: as §1, §2

NCI 58 cell line panel = assay: NCI one-dose SRB assay, whole panel / subpanel summary; format: cell-based, human; details: for inhibition at 10 µM: Homo sapiens, one dose, read-out: mean inhibition (mean % growth inhibition over NCI 58 cell line panel); for Mean Growth Percent: One Dose Mean Graph, 1.00E-5 Molar
Protocol: as §1, §2

K-562 = assay: NCI one-dose SRB assay (Leukemia); format: cell-based, human; details: for inhibition at 10 µM: Homo sapiens, K562, K-562, 10 μM, read-out: Percentage growth inhibition (GI%); for Growth Percent: K-562, 1.00E-5 Molar
Protocol: as §1, §2

HL-60(TB) = assay: NCI one-dose SRB assay (Leukemia); format: cell-based, human; details: for Growth Percent: 1.00E-5 Molar; for inhibition at 10 µM: Homo sapiens, read-out: Percentage growth inhibition (GI%)
Protocol: as §1, §2

CCRF-CEM = assay: NCI one-dose SRB assay (Leukemia); format: cell-based, human; details: for Growth Percent: 1.00E-5 Molar; for inhibition at 10 µM: Homo sapiens, read-out: Percentage growth inhibition (GI%)
Protocol: as §1, §2

SR = assay: NCI one-dose SRB assay (Leukemia); format: cell-based, human; details: for Growth Percent: 1.00E-5 Molar; for inhibition at 10 µM: Homo sapiens, read-out: Percentage growth inhibition (GI%)
Protocol: as §1, §2

RPMI-8226 = assay: NCI one-dose SRB assay (Leukemia); format: cell-based, human; details: for inhibition at 10 µM: Homo sapiens, RPMI-8226, 10 μM, read-out: Percentage growth inhibition (GI%); for Growth Percent: RPMI-8226, 1.00E-5 Molar
Protocol: as §1, §2

MOLT-4 = assay: NCI one-dose SRB assay (Leukemia); format: cell-based, human; details: for inhibition at 10 µM: Homo sapiens, MOLT-4, 10 μM, read-out: Percentage growth inhibition (GI%); for Growth Percent: MOLT-4, 1.00E-5 Molar
Protocol: as §1, §2

SN12C = assay: NCI one-dose SRB assay (Renal Cancer); format: cell-based, human; details: for Growth Percent: 1.00E-5 Molar; for inhibition at 10 µM: Homo sapiens, read-out: Percentage growth inhibition (GI%)
Protocol: as §1, §2

RXF 393 = assay: NCI one-dose SRB assay (Renal Cancer); format: cell-based, human; details: for inhibition at 10 µM: Homo sapiens, RXF 393, 10 μM, read-out: Percentage growth inhibition (GI%); for Growth Percent: RXF 393, 1.00E-5 Molar
Protocol: as §1, §2

786-0 = assay: NCI one-dose SRB assay (Renal Cancer); format: cell-based, human; details: for Growth Percent: 786-0, 1.00E-5 Molar; for inhibition at 10 µM: Homo sapiens, 786-0, 10 μM, read-out: Percentage growth inhibition (GI%)
Protocol: as §1, §2

A498 = assay: NCI one-dose SRB assay (Renal Cancer); format: cell-based, human; details: for Growth Percent: A498, 1.00E-5 Molar; for inhibition at 10 µM: Homo sapiens, A498, 10 μM, read-out: Percentage growth inhibition (GI%)
Protocol: as §1, §2

TK-10 = assay: NCI one-dose SRB assay (Renal Cancer); format: cell-based, human; details: for inhibition at 10 µM: Homo sapiens, TK-10, 10 μM, read-out: Percentage growth inhibition (GI%); for Growth Percent: TK-10, 1.00E-5 Molar
Protocol: as §1, §2

UO-31 = assay: NCI one-dose SRB assay (Renal Cancer); format: cell-based, human; details: for inhibition at 10 µM: Homo sapiens, UO-31, 10 μM, read-out: Percentage growth inhibition (GI%); for Growth Percent: UO-31, 1.00E-5 Molar
Protocol: as §1, §2

DU-145 = assay: NCI one-dose SRB assay (Prostate); format: cell-based, human; details: for Growth Percent: DU-145, 1.00E-5 Molar; for inhibition at 10 µM: Homo sapiens, DU-145, 10 μM, read-out: Percentage growth inhibition (GI%)
Protocol: as §1, §2

PC-3 = assay: NCI one-dose SRB assay (Prostate); format: cell-based, human; details: for inhibition at 10 µM: Homo sapiens, PC-3, 10 μM, read-out: Percentage growth inhibition (GI%); for Growth Percent: PC-3, 1.00E-5 Molar
Protocol: as §1, §2

[1] = test system: breast cancer MCF-7 cell line; assay: In vitro anti-proliferative activity, MTT assay; format: cell-based, human; details: Homo sapiens, MCF-7, MTT
Protocol: The in vitro anti-proliferative activity of the newly prepared pyridine-ureas 8a–n was examined against breast cancer MCF-7 cell line. The assay was carried out, as triplicates, utilizing the 3-(4,5-dimethylthiazol-2-yl)-2,5-diphenyltetrazolium bromide (MTT) colorimetric assay as described by T. Mosmann. Doxorubicin and Sorafenib were included in this assay as a reference drug.
MCF-7 (human breast cancer cell line) and WI-38 (human lung fibroblast cell line), were obtained from American Type Culture Collection (Manassas, VA, USA). The cells were propagated in DMEM and supplemented with 10% heat-inactivated FBS (Hyclone), 10 μg/mL of insulin (Manufacturer, Sigma, St. Louis, MO, USA), and 1% penicillin-streptomycin. MTT assay was utilized to examine the in vitro anti-proliferative activity of the newly prepared ureas following the reported procedures. […] The data presented are the mean of at least three separate experiments.

UACC-257 = assay: NCI one-dose SRB assay (Melanoma); format: cell-based, human; details: for inhibition at 10 µM: Homo sapiens, UACC-257, 10 μM, read-out: Percentage growth inhibition (GI%); for Growth Percent: UACC-257, 1.00E-5 Molar
Procedure, shortened: (§3)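 At a fixed 10^−5 M, each compound is incubated with the cell line for 48 h before protein content is stained with sulforhodamine B to gauge viability and growth; results are presented as GI%.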

SK-MEL-28 = assay: NCI one-dose SRB assay (Melanoma); format: cell-based, human; details: for inhibition at 10 µM: Homo sapiens, SK-MEL-28, 10 μM, read-out: Percentage growth inhibition (GI%); for Growth Percent: SK-MEL-28, 1.00E-5 Molar
Procedure, shortened: as §3

[2] = MCF7, 48 h, 48 h of incubation, read-out: IC50 48 h
[3] = MCF7, 72 h, 72 h of incubation, read-out: IC50 72 h

COc1ccc(-c2ccc(NC(=O)Nc3cccc(C(F)(F)F)c3)c(C)n2)cc1 [Compound 8b, 1-(6-(4-Methoxyphenyl)-2-methylpyridin-3-yl)-3-(3-(trifluoromethyl)phenyl) Urea]
melting point: 189 to 191 °C
inhibition at 10 µM (KM12): 55%
Growth Percent (KM12): 45.61%
inhibition at 10 µM (SW-620): 19%
Growth Percent (SW-620): 81.01%
Growth Percent (HT29): 47.65%
inhibition at 10 µM (HT29): 53%
Growth Percent (HCT-15): 40.87%
inhibition at 10 µM (HCT-15): 60%
Growth Percent (COLO 205): 84.52%
inhibition at 10 µM (COLO 205): 16%
inhibition at 10 µM (NCI 58 cell line panel): 43%
Mean Growth Percent (NCI 58 cell line panel): 57.47%
inhibition at 10 µM (K-562): 68%
Growth Percent (K-562): 32.55%
Growth Percent (HL-60(TB)): 49.75%
inhibition at 10 µM (HL-60(TB)): 51%
Growth Percent (CCRF-CEM): 42.94%
inhibition at 10 µM (CCRF-CEM): 58%
Growth Percent (SR): 36.30%
inhibition at 10 µM (SR): 64%
inhibition at 10 µM (RPMI-8226): 78%
Growth Percent (RPMI-8226): 22.58%
inhibition at 10 µM (MOLT-4): 67%
Growth Percent (MOLT-4): 33.74%
Growth Percent (SN12C): 67.99%
inhibition at 10 µM (SN12C): 33%
inhibition at 10 µM (RXF 393): 15%
Growth Percent (RXF 393): 85.91%
Growth Percent (786-0): 77.34%
inhibition at 10 µM (786-0): 23%
Growth Percent (A498): 52.08%
inhibition at 10 µM (A498): 48%
inhibition at 10 µM (TK-10): 24%
Growth Percent (TK-10): 76.66%
inhibition at 10 µM (UO-31): 45%
Growth Percent (UO-31): 55.08%
Growth Percent (DU-145): 68.79%
inhibition at 10 µM (DU-145): 32%
inhibition at 10 µM (PC-3): 76%
Growth Percent (PC-3): 24.40%
IC50 [1, 2]: 5.66 ± 0.45 µM
IC50 [1, 3]: 5.03 ± 0.29 µM
inhibition at 10 µM (UACC-257): 39%
Growth Percent (UACC-257): 61.43%
inhibition at 10 µM (SK-MEL-28): 31%
Growth Percent (SK-MEL-28): 69.29%

COc1ccc(-c2ccc(NC(=O)Nc3ccc(Cl)cc3)c(C)n2)cc1 [Compound 8d, 1-(4-Chlorophenyl)-3-(6-(4-methoxyphenyl)-2-methylpyridin-3-yl) Urea]
melting point: 231 to 232 °C
inhibition at 10 µM (KM12): < 10%
Growth Percent (KM12): 93.09%
inhibition at 10 µM (SW-620): 23%
Growth Percent (SW-620): 77.06%
Growth Percent (HT29): 85.13%
inhibition at 10 µM (HT29): 15%
Growth Percent (HCT-15): 85.74%
inhibition at 10 µM (HCT-15): 15%
Growth Percent (COLO 205): 102.39%
inhibition at 10 µM (COLO 205): < 10%
inhibition at 10 µM (NCI 58 cell line panel): 14%
Mean Growth Percent (NCI 58 cell line panel): 86.24%
inhibition at 10 µM (K-562): 16%
Growth Percent (K-562): 84.35%
Growth Percent (HL-60(TB)): 79.74%
inhibition at 10 µM (HL-60(TB)): 21%
Growth Percent (CCRF-CEM): 81.43%
inhibition at 10 µM (CCRF-CEM): 19%
Growth Percent (SR): 43.88%
inhibition at 10 µM (SR): 57%
inhibition at 10 µM (RPMI-8226): 10%
Growth Percent (RPMI-8226): 90.15%
inhibition at 10 µM (MOLT-4): 28%
Growth Percent (MOLT-4): 72.42%
Growth Percent (SN12C): 98.33%
inhibition at 10 µM (SN12C): < 10%
inhibition at 10 µM (RXF 393): < 10%
Growth Percent (RXF 393): 98.51%
Growth Percent (786-0): 90.10%
inhibition at 10 µM (786-0): 10%
Growth Percent (A498): 79.24%
inhibition at 10 µM (A498): 21%
inhibition at 10 µM (TK-10): < 10%
Growth Percent (TK-10): 102.41%
inhibition at 10 µM (UO-31): 11%
Growth Percent (UO-31): 89.14%
Growth Percent (DU-145): 98.63%
inhibition at 10 µM (DU-145): < 10%
inhibition at 10 µM (PC-3): 24%
Growth Percent (PC-3): 76.01%
IC50 [1, 2]: 7.1 ± 0.38 µM
IC50 [1, 3]: 5.14 ± 0.46 µM
inhibition at 10 µM (UACC-257): 22%
Growth Percent (UACC-257): 78.79%
inhibition at 10 µM (SK-MEL-28): 11%
Growth Percent (SK-MEL-28): 89.84%
